The values below are quoted from earlier work in US20160271085A1 (priority 2015, published 2016).

Data set [1] concerns amyotrophic lateral sclerosis. The note with it: ALS.
Another data set has as its system injured sciatic nerves. The following applies: addition of lactate; response did not occur in an atmosphere of nitrogen.
For data set [2] the following is noted: oral, ingested.

As for `Nc1nc2ccc(OC(F)(F)F)cc2s1` [Riluzole], the “progress of the disease” value in data set [1] is “appears to slow the progress of the disease”. Regarding `CC(O)C(=O)O` (stereo not drawn) [lactate], the sustained muscle contraction entry in the data set with injured sciatic nerves was “enhanced”. For `CC(O)C(=O)[O-].[Na+]` (stereo not drawn) [sodium lactate, Sodium lactate], the serum lactate levels entry in data set [2] is “significantly elevate serum lactate levels”.
